Patent EP0377642B1, “HERBICIDES FOR WEED CONTROL IN RICE” (E.I. DU PONT DE NEMOURS AND COMPANY, priority 1987, dated 1989)
Read-outs that look alike come from different tables or passages of the source.

Legend:
Assay type in all cases: in vivo
rice [1] = assay: Effects in combination with Thiobencarb and Bensulfuron Methyl on rice growth (Table 22); conditions: rate 75 g ai/ha; var. Koshihikari, applied 7 days after transplanting, rated 21 days after application
Source text: (§1) Methyl 2-[[[[(4-methoxy-6-methyl-1,3,5-triazin-2-yl)amino]carbonyl]amino]sulfonyl]benzoate (Compound 1) and mixtures thereof with other compounds were applied as a spray (using a hand sprayer) to rice (either transplanted or direct seeded) in several rice growing areas in Southeast Asia and in the U.S. Tables 1-28 contain the results of these tests and clearly exemplify the utility of this invention. The details of each application are included in the appropriate table. [drawing 2]

weeds = assay: Greenhouse test of Compound 1 and Compound 2, herbicidal efficacy (Table 26); conditions: rated 24 days after treatment; for % CONTROL OR INJURY AT: Alisma triviale; for % CONTROL OR INJURY AP: Alternanthera philoxeroides; for % CONTROL OR INJURY CD: Cyperus difformis; for % CONTROL OR INJURY SR: Sagittaria rigida
Source text: as §1

[2] = system: transplanted rice (var. Nihonbare); assay: Crop tolerance of transplanted rice, combinations with Thiobencarb, Dimepiperate, Esprocarb and Dymron (Table 15); conditions: in vivo
Source text: as §1

FIMBRISTYLIS MILIACEA [3] = assay: Herbicidal efficacy alone and with 2,4-D in Thailand (Table 3); conditions: 600 GAI/HA, 6 weeks after application
Source text: as §1

Sphenoclea zeylanica [4] = assay: Field test applied at 7 DAS in direct seeded rice (Table 11); conditions: 1,500 GM.A.I./HA, scale 0-10
Source text: as §1

Cyperus difformis = assay: as above; conditions: 1,500 GM.A.I./HA, scale 0-10
Source text: as §1

direct seeded rice = conditions: 1,500 GM.A.I./HA; for PHYTO at 2WAA: scale 0-10
Source text: as §1

rice [5] = assay: Effects on rice growth in Thailand, phytotoxicity (Table 2); conditions: 600 GAI/HA, scale 0-10
Source text: as §1

Sphenoclea zeylanica [6] = assay: Field test applied at 25 DAS in direct seeded rice (Table 13); conditions: 1,500 GM.A.I./HA, scale 0-10
Source text: as §1

Cyperus iria [7] = assay: as above; conditions: 1,500 GM.A.I./HA, scale 0-10
Source text: as §1

rice [8] = assay: Effects on rice growth in Thailand, phytotoxicity (Table 4); conditions: 600 GAI/HA, scale 0-10
Source text: as §1

Sphenoclea zeylanica [9] = assay: Field test applied at 18 DAS in direct seeded rice (Table 12); conditions: 1,500 GM.A.I./HA, scale 0-10
Source text: as §1

Jussiaea linifolia = assay: as above; conditions: 1,500 GM.A.I./HA, scale 0-10
Source text: as §1

FIMBRISTYLIS MILIACEA [10] = assay: as above; conditions: 1,500 GM.A.I./HA, scale 0-10
Source text: as §1

Cyperus iria [11] = assay: as above; conditions: 1,500 GM.A.I./HA, scale 0-10
Source text: as §1

WEED [12] = assay: Effects in combination with Bensulfuron Methyl and Thiobencarb or Pretilachlor on weed control (Table 24); conditions: rate 600 g ai/ha, scale 0 to 10, treated at 1.0 leaf stage, evaluated four weeks later
Source text: as §1

WEED [13] = assay: Effects in combination with Bensulfuron Methyl and Thiobencarb or Pretilachlor on weed control (Table 25); conditions: rate 600 g ai/ha, scale 0 to 10, treated at 2.0 leaf stage, evaluated four weeks later
Source text: as §1
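Wherever YIELD is given: yield in Tons/ha.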

## COC(=O)c1ccccc1CS(=O)(=O)NC(=O)Nc1nc(OC)cc(OC)n1
Rice [1]
  CROP TOLERANCE DW (Dry weight relative to untreated check): 76%
  CROP TOLERANCE PH (Plant height relative to untreated check): 84%
  CROP TOLERANCE VA (Visual crop injury): 3.5%

## COC(=O)c1ccccc1S(=O)(=O)NC(=O)Nc1nc(OC)cc(OC)n1 [Compound 2, methyl 2-[[[[(4,6-dimethoxy-2-pyrimidinyl)amino]carbonyl]amino]sulfonyl]benzoate]
weeds; rate 1 g ai/ha
  % CONTROL OR INJURY AT: 95%
  % CONTROL OR INJURY AP: 0%
  % CONTROL OR INJURY CD: 70%
  % CONTROL OR INJURY SR: 0%
weeds; rate 2 g ai/ha
  % CONTROL OR INJURY AT: 95%
  % CONTROL OR INJURY AP: 0%
  % CONTROL OR INJURY CD: 80%
  % CONTROL OR INJURY SR: 0%
weeds; rate 4 g ai/ha
  % CONTROL OR INJURY AT: 95%
  % CONTROL OR INJURY AP: 20%
  % CONTROL OR INJURY CD: 100%
  % CONTROL OR INJURY SR: 80%
weeds; rate 8 g ai/ha
  % CONTROL OR INJURY AT: 95%
  % CONTROL OR INJURY AP: 30%
  % CONTROL OR INJURY CD: 100%
  % CONTROL OR INJURY SR: 80%

## CC(C)(SC(=O)N1CCCCC1)c1ccccc1 [Dimepiperate, S-1-methyl-1-phenylethylpiperidine-1-carbothioate]
[2]
  CROP TOLERANCE (Nihonbare) PH, plant height relative to untreated check: 102%
  CROP TOLERANCE (Nihonbare) VA, visual crop injury: 0%

## O=C([O-])COc1ccc(Cl)cc1Cl.[Na+] [2,4-D (SODIUM SALT), 2,4-dichlorophenoxyacetic acid, sodium salt]
FIMBRISTYLIS MILIACEA [3]; applied 7 DAS
  FIMBRISTYLIS MILIACEA CONTROL: 96%
FIMBRISTYLIS MILIACEA [3]; applied 14 DAS
  FIMBRISTYLIS MILIACEA CONTROL: 95%
FIMBRISTYLIS MILIACEA [3]; applied 21 DAS
  FIMBRISTYLIS MILIACEA CONTROL: 93%
FIMBRISTYLIS MILIACEA [3]; applied 28 DAS
  FIMBRISTYLIS MILIACEA CONTROL: 98%
Sphenoclea zeylanica [4]
  WEED CONTROL at 6 WAA SZ: 6.0
Cyperus difformis
  WEED CONTROL at 6 WAA CD: 10
Direct seeded rice; 7 DAS
  YIELD: 4.13 TONS/HA
  PHYTO at 2WAA: 0
Direct seeded rice; 18 DAS
  YIELD: 4.59 TONS/HA
  PHYTO at 2WAA: 0
Rice [5]; applied 7 DAS
  PHYTOTOXICITY: 2.33
Rice [5]; applied 14 DAS
  PHYTOTOXICITY: 1.33
Rice [5]; applied 21 DAS
  PHYTOTOXICITY: 0
Rice [5]; applied 28 DAS
  PHYTOTOXICITY: 0
Sphenoclea zeylanica [6]
  WEED CONTROL at 6 WAA SZ: 6.67
Cyperus iria [7]
  WEED CONTROL at 6 WAA CI: 10
Rice [8]; applied 7 DAS
  PHYTOTOXICITY: 5.0
Rice [8]; applied 14 DAS
  PHYTOTOXICITY: 3.67
Rice [8]; applied 21 DAS
  PHYTOTOXICITY: 3.0
Rice [8]; applied 28 DAS
  PHYTOTOXICITY: 1
Sphenoclea zeylanica [9]
  WEED CONTROL at 6 WAA SZ: 4.67
Jussiaea linifolia
  WEED CONTROL at 6 WAA JL: 10
FIMBRISTYLIS MILIACEA [10]
  WEED CONTROL at 6 WAA FM: 9.33
Cyperus iria [11]
  WEED CONTROL at 6 WAA CI: 9.33

## CCCOCCN(C(=O)CCl)c1c(CC)cccc1CC [PRETILACHLOR]
WEED [12]; Cyperus difformis
  WEED CONTROL RATINGS CD: 10
WEED [12]; Cyperus serotinus
  WEED CONTROL RATINGS CS: 3
WEED [12]; Echinochloa oryzicola
  WEED CONTROL RATINGS EO: 10
WEED [12]; Lindernia pyxidaria
  WEED CONTROL RATINGS BL: 10
WEED [12]; Monochoria vaginalis
  WEED CONTROL RATINGS MV: 5
WEED [12]; Sagittaria pygmaea
  WEED CONTROL RATINGS SP: 3
WEED [12]; Scirpus juncoides
  WEED CONTROL RATINGS SJ: 5
WEED [13]; Cyperus difformis
  WEED CONTROL RATINGS CD: 10
WEED [13]; Cyperus serotinus
  WEED CONTROL RATINGS CS: 3
WEED [13]; Echinochloa oryzicola
  WEED CONTROL RATINGS EO: 7
WEED [13]; Lindernia pyxidaria
  WEED CONTROL RATINGS BL: 7
WEED [13]; Monochoria vaginalis
  WEED CONTROL RATINGS MV: 3
WEED [13]; Sagittaria pygmaea
  WEED CONTROL RATINGS SP: 6
WEED [13]; Scirpus juncoides
  WEED CONTROL RATINGS SJ: 2
